Assay: behavior of agents D in water and in ethanol/water solution 40/60 v/v
Type: physicochemical
From the text: Different compounds D are introduced into ajar containing either water (on the left in the Figures) or an ethanol/water solution in a ratio of 40/60 v/v (right jar in the Figures).

| Substance | solubility in water and in ethanol/water | solubilization rate in water versus water/ethanol mixture |
| --- | --- | --- |
| guar gum | soluble in water but not in the water/ethanol mixture | – |
| hydroxypropyl methyl cellulose [hypromellose] | – | higher in water than in the water/ethanol mixture |
